{"source": "patent US7365223B2", "about": "“Method for selective targeting of apoptotic cells and small molecule ligands used thereof” (NST NeuroSurvival Technologies Ltd, priority 2003, dated 2008)", "key": {"[1]": {"test_system": "Jurkat cells undergoing apoptosis induced by anti-Fas Ab", "assay": "Selective binding to apoptotic Jurkat cells; flow-cytometric (FACS) analysis", "format": "cell-based, human", "settings": "20 minutes", "method": "Cultured Jurkat cells (human adult T cell leukemia cells) were grown in suspension in RPMI medium (Beit-Haemek, Israel), supplemented with 10% of fetal calf serum (FCS), 4 mM of L-glutamine, 1 mM of sodium pyruvate, […] and antibiotics (100 units/ml penicillin; 100 μg/ml streptomycin and 12.5 units/ml of nystatin). Prior to induction of apoptosis, medium was replaced with HBS buffer (10 mM HEPES; 140 mM NaCl, 1 mM CaCl). Apoptosis was then triggered by treatment with anti-Fas Ab (0.1 μg/ml; 3 hrs). As a result, a marked percentage of the cells became apoptotic, and is regarded as newly formed early apoptotic cells. Non-treated cells served as control. Both control cells and apoptotic cells were then incubated for 20 minutes with 100 μM of NST705. […] The analysis shown in FIG. 1 describes the uptake of NST705 compound into the population of apoptotic cells in control and anti-fas treated cultures.\n(§1) In the dot plot shown in FIG. 1A and FIG. 1B, the left lower quadrant represents the healthy, non-stained fraction of cells. The right lower quadrant represents the newly formed population of cells in the early stages of apoptosis. These cells still maintain membrane integrity and thus exclude PI. Cells binding both NST705 and PI, i.e., cells in the late stages of apoptosis are represented in the right upper quadrant.\n(§2) Cultured Jurkat cells (human adult T cell leukemia cells) were grown in suspension in RPMI medium (Beit-Haemek, Israel), supplemented with 10% of fetal calf serum (FCS), 2 mM of L-glutamine, 1 mM of sodium pyruvate, […] and antibiotics (100 units/ml penicillin; 100 μg/ml streptomycin and 12.5 units/ml of nystatin). Prior to induction of apoptosis, medium was replaced with HBS buffer (10 mM HEPES; 140 mM NaCl, 1 mM CaCl). Apoptosis was then triggered by treatment with anti-Fas Ab (0.1 μg/ml; 3 hrs). As a result, a marked percentage of the cells became apoptotic. Non-treated cells served as control. Both control cells and apoptotic cells were then incubated for 20 minutes with 100 μM of NST703. Subsequently, cells were co-stained with propidium iodide (P). Binding of NST703 to the control and apoptotic cells was determined by flow cytometric (FACS) analysis using Becton-Dickinson cell sorter and CellQuest software (excitation was at 356 nm and emission was measured at 530 nm).\nas §1, with “2A” for “1A”, “2B,” for “FIG. 1B,”, “NST703” for “NST705”\nas §2, with “penicilin;” for “penicillin;”, “DC.” for “NST703.”, “(PI).” for “(P).”, “DC” for “NST703”\nFIG. 4A and FIG. 4B are each a representative FACS dot plot, showing that activation of apoptosis leads to a marked uptake of DC by cells in the early stages of apoptosis (FIG. 4B), as compared to control cells (FIG. 4A). […]"}, "[2]": {"test_system": "apoptotic cells in B16-F10 murine melanoma tumor", "assay": "Targeting in-vivo to apoptotic cells in tumor, murine melanoma; fluorescent microscopy", "parameters": "species or system mice", "settings": "2 mg/mouse intravenously, 2 hours", "method": "Tumors, and especially aggressive malignancies such as melanoma are characterized, in addition to the abnormal tissue proliferation, also by marked apoptosis of tumor cells. The performance of DC in selective targeting of these apoptotic cells within the tumor was therefore examined Mice (c57/black; 8 weeks old male mice) were injected subcutaneously bilaterally, in the flank, with murine melanoma-derived B16-F10 cells (ATCC CRL-6475; 10^5 cells/mice in a volume of 100 μl). Prior to injection, the cell line was maintained in culture in Dulbecco's modified Eagle's medium (DMEM), supplemented with 4 mM of L-glutamine; 100 units/ml of penicillin; 100 μg/ml of streptomycin; 12.5 units/ml of nystatin and 10% of fetal calf serum (FCS). Tumors were allowed to grow for 14 days, by which they reached a diameter of 5-7 mm.\n(§3) The DC compound (2 mg/mouse in NaPpi buffer, pH. 7.40) was injected intravenously. Two hours later, the mice were scarified and the tumors, as well as other organs were taken, and immediately frozen in liquid nitrogen. Frozen sections were then prepared from each of the organs. Uptake of DC by the tumors or other organs was assessed by fluorescent microscopy.\nThe performance of NST730 in selective targeting to apoptotic cells within a tumor examined as described in Example 7. Mice (c57/black; 8 weeks old male mice) were injected subcutaneously bilaterally, in the flank, with murine melanoma-derived B16-F10 cells (ATCC CRL-6475; 10^5 cells/mice in a volume of 100 μl). Tumors were allowed to grow for 14 days, by which they reached a diameter of 5-7 mm.\nas §3, with “The NST730 compound (2” for “The DC compound (2”, “Uptake of NST730 by the” for “Uptake of DC by the”, “tumors or by other organs” for “tumors or other organs”"}, "[3]": {"test_system": "murine lymphoma cells undergoing cell death induced by irradiation", "assay": "Detection of cell death induced by irradiation in vivo; murine lymphoma", "settings": "irradiated DBA mice (3 fractions of 6 Gray); 70 mg/kg intravenously, 2 hours", "method": "DBA mice (5-6 weeks old males, Jackson laboratories) were injected subcutaneous with 10^6 lyS cells in 50 μl saline and were examined daily for tumor formation. At days 8, 9 and 10 mice were placed in a Perspex box and irradiated with 6MV x-rays apparatus (Linac) in fractions of 6 Gray each. Each mouse received a dose of about 1.0 centiGray per monitor unit. At day 13 (72 hours following the last irradiation) mice were injected intravenously with NST 732 (70 mg/kg, dissolved in Tris base containing 25% cremophore RH410, pH=9). After 2 hours, tumors were excised, frozen in liquid nitrogen and submitted for histopathological assessment."}, "[4]": {"test_system": "neuronal cell death following MCA occlusion", "assay": "Detection of neuronal cell death following middle cerebral artery (MCA) occlusion", "format": "in vivo", "settings": "Balb/C mice; 70 mg/kg intravenously 22 hours after MCA cauterization, 2 hours", "method": "(§4) Cerebral ischemia was induced in Balb/C mice (10-12 weeks) by cauterization of the middle cerebral artery. Mice were anesthetized, and the temporal bone was exposed. Scraping off the bone up to a minimal hole allowed exposure of the artery subjecting it to cauterization. 22 hours later, NST732 (70 mg/kg) was injected intravenously. Two hours later (at 24 h from induction of the injury), mice were anesthetized and sacrificed, and brains were removed into liquid nitrogen for histopathological analysis of the frozen sections. Four μm thick sections were prepared for fluorescent microscopic analysis to follow the cells stained positively with NST732.\nas §4, with “cauterization,” for “cauterization.”, “NST730” for “NST732”, “sections, as described in Example 11.” for “sections. Four μm thick sections were prepared for fluorescent microscopic analysis to follow the cells stained positively with NST732.”"}, "[5]": {"test_system": "chemotherapy-induced apoptotic cells of lymphoma tumors", "assay": "In-vivo targeting to chemotherapy-induced apoptotic cells of lymphoma tumors; fluorescent microscopy", "settings": "DBA/2 mice, Taxol 20 mg/Kg; 1.4 mg/mouse injected 24 h later, 2 hours", "method": "Lymphoma tumors were induced in 8 weeks old male DBA/2 mice (Harlan laboratories, UK) by subcutaneous injection of lymphoma cells. The cells, from a chemically-induced LY-R clone were obtained from ATCC(CRL-1722), and maintained by subsequent passages in mice. For induction of tumors, 5×10^5 cells in a volume of 100 μl were injected into the thigh region in mice. […] Twenty-four hours later, NST705 was injected systemically at a dose of 1.4 mg/mouse. Two hours later, mice were sacrificed and tumors were frozen in liquid nitrogen. Cryosections were then prepared and serial slides were subjected to either hematoxylin & eosin (H&E) staining or fluorescent microscopy evaluation (excitation wavelength of 360 nm, emission at 530 nm), using an Olympus fluorescent microscope (model IX70)."}, "apoptotic HeLa S3 cells": {"test_system": "apoptotic HeLa S3 cells", "assay": "Selective binding to apoptotic HeLa cells in vitro; flow-cytometric analysis", "format": "cell-based", "settings": "culture aged 96 hours; FACS", "method": "HeLa S3 cells (ATCC CCL-2.2) were grown in Dulbecco's modified Eagle's medium (DMEM), supplemented with 2 mM of L-glutamine; 100 units/ml of penicillin; 100 μg/ml of streptomycin; 12.5 units/ml of nystatin and 10% of fetal calf serum (FCS). Cells were seeded at a density of 5×10^6 cells/plate, on a […] culture plates, in a volume of 10 ml, and were allowed to age by incubating the culture for 96 hours without exchange of the growth medium. As a result, a marked percentage of the cells became apoptotic. Cells were harvested using a cell scraper, separated to single cells by passage through a syringe with a 18 G needle, and re-suspended at a density of 10^6 cells/ml in PBS buffer at pH=7.4. […] The analysis shown in FIG. 10 describes the uptake of NST601 compound into the population of apoptotic cells."}, "[6]": {"settings": "apoptotic cells (anti-Fas Ab 0.1 μg/ml, 3 hrs), 100 μM compound"}, "[7]": {"settings": "non-treated control cells, 100 μM compound"}}}
{"smiles": "CN(C)c1cccc2c(S(=O)(=O)N[C@@H](CS)C(=O)O)cccc12", "note": "[DC, dansylcysteine]", "values": [{"measurement": "percent of identified early apoptotic events within the population (cells binding compound, excluding PI)", "setting": "[1]; [6]", "result": 76, "unit": "%"}, {"measurement": "percent of identified early apoptotic events within the population (cells binding compound, excluding PI)", "setting": "[1]; [7]", "result": 2.3, "unit": "%"}, {"measurement": "binding to normal, viable tissue", "setting": "[2]; small intestine tissue of the same animal", "result": "lack of binding"}, {"measurement": "binding to tumor cells undergoing apoptosis", "setting": "[2]", "result": "Extensive binding"}, {"measurement": "staining of viable tumor cells", "setting": "[2]", "result": "remain unstained"}]}
{"smiles": "CCC(CF)(NS(=O)(=O)c1cccc2c(N(C)C)cccc12)C(=O)O", "note": "(stereo not drawn) [NST732]", "values": [{"measurement": "binding to tumor cells undergoing apoptosis", "setting": "[3]", "result": "extensive binding"}, {"measurement": "binding to cells in the infarcted (damaged) area", "setting": "[4]", "result": "extensive binding"}, {"measurement": "binding to cells outside the infarcted area", "setting": "[4]", "result": "did not manifest significant binding"}]}
{"smiles": "CN(C)c1cccc2c(S(=O)(=O)O)cccc12", "note": "[DA, dansylic acid]", "values": [{"measurement": "percent of identified early apoptotic events within the population (cells binding compound, excluding PI)", "setting": "[1]; apoptotic cells (anti-Fas Ab 0.1 μg/ml, 3 hrs), 250 μM compound", "result": 77, "unit": "%"}, {"measurement": "percent of identified early apoptotic events within the population (cells binding compound, excluding PI)", "setting": "[1]; non-treated control cells, 250 μM compound", "result": 4.2, "unit": "%"}]}
{"smiles": "CCCCN(C)c1cccc2c(S(=O)(=O)NCC(=O)O)cccc12", "note": "[NST703, (5-Butylmethylamino-naphtalene-1-sulfonyl)-glycine]", "values": [{"measurement": "percent of identified early apoptotic events within the population (cells binding compound, excluding PI)", "setting": "[1]; [6]", "result": 75.6, "unit": "%"}, {"measurement": "percent of identified early apoptotic events within the population (cells binding compound, excluding PI)", "setting": "[1]; [7]", "result": 3.27, "unit": "%"}]}
{"smiles": "CN(C)c1cccc2c(S(=O)(=O)NC(C)(CF)C(=O)O)cccc12", "note": "(stereo not drawn) [NST730]", "values": [{"measurement": "binding to other non-target tissues", "setting": "[2]; colon, kidney, spleen and heart", "result": "lack of significant binding"}, {"measurement": "binding to normal, viable tissue", "setting": "[2]; muscle tissue of the same animal", "result": "lack of binding"}, {"measurement": "binding to tumor cells undergoing apoptosis", "setting": "[2]", "result": "Extensive binding"}, {"measurement": "staining of viable tumor cells", "setting": "[2]", "result": "remain unstained"}, {"measurement": "binding to cells in the infarcted (damaged) area", "setting": "[4]", "result": "extensive binding"}, {"measurement": "binding to cells outside the infarcted area", "setting": "[4]", "result": "did not manifest significant binding"}]}
{"smiles": "CCCCN(CCCC)c1cccc2c(S(=O)(=O)N[C@@H](CC(=O)O)C(=O)O)cccc12", "note": "[NST705, (5-dibutylamino-naphthalene-1-sulfonyl)-L-aspartic acid]", "values": [{"measurement": "percent of identified early apoptotic events within the population (cells binding compound, excluding PI)", "setting": "[1]; [6]", "result": 70.8, "unit": "%"}, {"measurement": "percent of identified early apoptotic events within the population (cells binding compound, excluding PI)", "setting": "[1]; [7]", "result": 3, "unit": "%"}, {"measurement": "uptake by tumor cells undergoing cell death", "setting": "[5]", "result": "marked uptake"}, {"measurement": "uptake by viable, non-apoptotic tumor cells", "setting": "[5]", "result": "not observed"}]}
{"smiles": "CCCCN(C)c1cccc2c(S(=O)(=O)O)cccc12", "note": "[NST601, 5-Butylmethylamino-naphtalene-1-sulfonic acid]", "values": [{"measurement": "binding to apoptotic cells", "setting": "apoptotic HeLa S3 cells", "result": "selective binding"}, {"measurement": "staining of cells that do not undergo a process of cell death", "setting": "apoptotic HeLa S3 cells", "result": "remained non-stained"}]}
